Patent publication US4851518A, “Di and tri-O-acetyl-"O-iso-valeryl-23-O-demycinosyl tylosins, hydrazone derivatives thereof and processes for their preparation” (priority 1985, dated 1989)

What was measured:
[1] = Serum levels PO in squirrel monkeys (AUCs, 0-6h.), cylinder cup method; format: in vivo; details: for AUC at 6 h: monkey, po
Description: The serum levels of the compounds of this invention were determined in male mice (Carworth CF-1) weighing 18-20 g. each, and squirrel monkeys weighing ca. 1 kg. each. Groups of six mice were given aqueous solutions of the drugs intravenously as single bolus doses of 100 mg./kg., and groups of six monkeys were given the drugs orally as a single dose of 20, or 50 mg./kg. After 1, 3, 5, 10, 20, 30, 45, 60, 90, 120 and 180 min., mice were killed by cutting the jugular vein and the blood allowed to drain into 8 mm. (diameter) tubes which had been standing in a ice water bath. At each time point, blood from the group of mice was pooled. For monkeys, blood samples were taken after 15, 30, 45, 60, 90, 120, 180, 240 and 360 minutes and were not pooled. The samples were left to clot at room temperature for 15 min. After clotting, the samples were centrifuged for 10 min. […] Stock solutions of each antibacterial were prepared daily in the appropriate vehicle and diluted in homologous serum to prepare a standard curve. Serum samples, diluted where necessary in the appropriate serum, were compared to a standard curve of known potency by standard assay procedures. All assays were done at least twice.
(§1) AUCs (areas under the curves) were obtained from serum level vs. time data by the trapezoidal rule.

[2] = Serum levels IV in mice (AUCs, 0-3h.), cylinder cup method; format: in vivo, male mice (Carworth CF-1); details: for AUC at 3 h: mouse, in vivo, intravenous single bolus 100 mg./kg.; for AUC at 3 h / serum levels compared with erythromycin, rosaramicin, tylosin, 3-O-acetyl-4"-O-iso-valeryltylosin, 3-O-acetyl-23-O-demycinosyl-4"-O-iso-valeryltylosin, intravenously to mice: 10 mg./ml. in vehicle; for serum levels compared with erythromycin, rosaramicin, tylosin, 3-O-acetyl-4"-O-iso-valeryltylosin, 3-O-acetyl-23-O-demycinosyl-4"-O-iso-valeryltylosin, intravenously to mice: 100 mg./kg.
Description: The serum levels of the compounds of this invention were determined in male mice (Carworth CF-1) weighing 18-20 g. each, and squirrel monkeys weighing ca. 1 kg. each. Groups of six mice were given aqueous solutions of the drugs intravenously as single bolus doses of 100 mg./kg., and groups of six monkeys were given the drugs orally as a single dose of 20, or 50 mg./kg. After 1, 3, 5, 10, 20, 30, 45, 60, 90, 120 and 180 min., mice were killed by cutting the jugular vein and the blood allowed to drain into 8 mm. (diameter) tubes which had been standing in a ice water bath. At each time point, blood from the group of mice was pooled. For monkeys, blood samples were taken after 15, 30, 45, 60, 90, 120, 180, 240 and 360 minutes and were not pooled. The samples were left to clot at room temperature for 15 min. After clotting, the samples were centrifuged for 10 min. Serum was removed and put into another test tube in an ice water bath, until antibiotic levels were determined by a cylinder cup method, with either Bacillus subtilis ATCC 6633, or Micrococcus luteus ATCC 9431 as the test organisms. Stock solutions of each antibacterial were prepared daily in the appropriate vehicle and diluted in homologous serum to prepare a standard curve. Serum samples, diluted where necessary in the appropriate serum, were compared to a standard curve of known potency by standard assay procedures. All assays were done at least twice.
as §1

[3] = cited from earlier work
[4] = in vivo, 20 mg/kg, oral single dose 20 mg./kg., 20 mg./ml. in PEG 40 castor oil/lactic acid vehicle
[5] = serum, 20 mg/kg, oral single dose 20 mg./kg., 20 mg./ml. in PEG 40 castor oil/lactic acid vehicle
[6] = serum, 20 mg/kg, oral single dose 20 mg./kg., 3.5 mg./ml. in vehicle, crossover experiment

| Compound | AUC at 3 h [2] [ng·h/mL] | AUC at 6 h [1, 5] [ng·h/mL] | other results |
| --- | --- | --- | --- |
| CC[C@H]1OC(=O)[C@H](C)[C@@H](O[C@H]2C[C@@](C)(OC)[C@@H](O)[C@H](C)O2)[C@H](C)[C@@H](O[C@@H]2O[C@H](C)C[C@H](N(C)C)[C@H]2O)[C@](C)(O)C[C@@H](C)C(=O)[C@H](C)[C@@H](O)[C@]1(C)O [I, Erythromycin, reference compound] | 36100 |  | AUC at 6 h ([1]; in vivo, 20 mg/kg, oral single dose 20 mg./kg., 3.5 mg./ml. in vehicle): 1500 ng·h/mL; AUC at 6 h ([1]; in vivo, 20 mg/kg, oral single dose 20 mg./kg., 10 mg./ml. in vehicle): 4800 ng·h/mL; AUC at 6 h [1, 4]: 4900 ng·h/mL |
| CC[C@H]1OC(=O)C[C@@H](O)[C@H](C)[C@@H](O[C@@H]2O[C@H](C)C[C@H](N(C)C)[C@H]2O)[C@@H](CC=O)C[C@@H](C)C(=O)/C=C/[C@]2(C)O[C@H]2[C@@H]1C [II, Rosaramicin, reference compound] |  | 2200 | AUC at 6 h ([1]; serum, 50 mg/kg, oral single dose 50 mg./kg., 50 mg./ml. in vehicle): 6600 ng·h/mL |
| CC[C@H]1OC(=O)C[C@@H](O)[C@H](C)[C@@H](O[C@@H]2O[C@H](C)[C@@H](O[C@H]3C[C@@](C)(O)[C@@H](O)[C@H](C)O3)[C@H](N(C)C)[C@H]2O)[C@@H](CC=O)C[C@@H](C)C(=O)/C=C/C(C)=C/[C@@H]1CO[C@@H]1O[C@H](C)[C@@H](O)[C@@H](OC)[C@H]1OC [III, Tylosin] | 24200 |  | AUC at 6 h [1, 4]: 2600 ng·h/mL; AUC at 6 h ([1]; in vivo, 50 mg/kg, oral single dose 50 mg./kg., 50 mg./ml. in vehicle): 15600 ng·h/mL; stability in acidic and basic solution [3]: readily transformed in acidic and basic solution into aldol condensation and Michael addition products |
| CC[C@H]1OC(=O)C[C@@H](OC(C)=O)[C@H](C)[C@@H](O[C@@H]2O[C@H](C)[C@@H](O[C@H]3C[C@@](C)(O)[C@@H](OC(=O)CC(C)C)[C@H](C)O3)[C@H](N(C)C)[C@H]2O)[C@@H](CC=O)C[C@@H](C)C(=O)/C=C/C(C)=C/[C@@H]1CO[C@@H]1O[C@H](C)[C@@H](O)[C@@H](OC)[C@H]1OC [IV, 3-O-Acetyl-4"-O-iso-valeryltylosin, reference compound] | 52400 | 15800 | AUC at 6 h [1, 6]: 7600 ng·h/mL |
| CC[C@H]1OC(=O)C[C@@H](OC(C)=O)[C@H](C)[C@@H](O[C@@H]2O[C@H](C)[C@@H](O[C@H]3C[C@@](C)(O)[C@@H](OC(=O)CC(C)C)[C@H](C)O3)[C@H](N(C)C)[C@H]2O)[C@@H](CC=NN2CCS(=O)(=O)CC2)C[C@@H](C)C(=O)/C=C/C(C)=C/[C@@H]1CO [IX, 3-O-Acetyl-23-O-demycinosyl-20-deoxo-20-[(4,4-dioxothiomorpholinyl)imino]-4"-O-iso-valeryltylosin] | 40100 | 2500 |  |
| CC[C@H]1OC(=O)C[C@@H](OC(C)=O)[C@H](C)[C@@H](O[C@@H]2O[C@H](C)[C@@H](O[C@H]3C[C@@](C)(O)[C@@H](OC(=O)CC(C)C)[C@H](C)O3)[C@H](N(C)C)[C@H]2O)[C@@H](CC=O)C[C@@H](C)C(=O)/C=C/C(C)=C/[C@@H]1CO [V, 3-O-Acetyl-23-O-demycinosyl-4"-O-isovaleryltylosin, reference compound] | 28300 | 5500 |  |
| CC[C@H]1OC(=O)C[C@@H](OC(C)=O)[C@H](C)[C@@H](O[C@@H]2O[C@H](C)[C@@H](O[C@H]3C[C@@](C)(O)[C@@H](OC(=O)CC(C)C)[C@H](C)O3)[C@H](N(C)C)[C@H]2OC(C)=O)[C@@H](CC=O)C[C@@H](C)C(=O)/C=C/C(C)=C/[C@@H]1CO [VI, 3,2'-Di-O-acetyl-23-O-demycinosyl-4"-O-iso-valeryltylosin] |  | 10400 | serum levels compared with 3-O-acetyl-4"-O-iso-valeryltylosin, orally to squirrel monkeys ([1]; 20 mg./kg., 20 mg./ml. in vehicle): slightly lower serum levels; serum levels compared with 3-O-acetyl-4"-O-iso-valeryltylosin, orally to squirrel monkeys ([1]; oral, dose not given): slightly lower serum levels |
| CC[C@H]1OC(=O)C[C@@H](OC(C)=O)[C@H](C)[C@@H](O[C@@H]2O[C@H](C)[C@@H](O[C@H]3C[C@@](C)(O)[C@@H](OC(=O)CC(C)C)[C@H](C)O3)[C@H](N(C)C)[C@H]2OC(C)=O)[C@@H](CC=O)C[C@@H](C)C(=O)/C=C/C(C)=C/[C@@H]1COC(C)=O [VII, 3,23,2'-Tri-O-acetyl-23-O-demycinosyl-4"-O-iso-valeryltylosin] | 69400 |  | serum levels compared with 3-O-acetyl-4"-O-iso-valeryltylosin, orally to squirrel monkeys ([1]; 20 mg./kg., 3.5 mg./ml. in vehicle): superior serum levels; AUC at 6 h [1, 6]: 13500 ng·h/mL; serum levels compared with 3-O-acetyl-4"-O-iso-valeryltylosin, orally to squirrel monkeys ([1]; oral, dose not given): superior serum levels; serum levels compared with erythromycin, rosaramicin, tylosin, 3-O-acetyl-4"-O-iso-valeryltylosin, 3-O-acetyl-23-O-demycinosyl-4"-O-iso-valeryltylosin, intravenously to mice [2]: serum levels that are superior; serum levels compared with erythromycin, rosaramicin, tylosin, 3-O-acetyl-23-O-demycinosyl-4"-O-iso-valeryltylosin, 3-O-acetyl-4"-O-iso-valeryltylosin, intravenously to mice ([2]; intravenous, dose not given): higher serum levels |
| CC[C@H]1OC(=O)C[C@@H](OC(C)=O)[C@H](C)[C@@H](O[C@@H]2O[C@H](C)[C@@H](O[C@H]3C[C@@](C)(O)[C@@H](OC(=O)CC(C)C)[C@H](C)O3)[C@H](N(C)C)[C@H]2O)[C@@H](CC=NN2CCS(=O)(=O)CC2)C[C@@H](C)C(=O)/C=C/C(C)=C/[C@@H]1CO[C@@H]1O[C@H](C)[C@@H](O)[C@@H](OC)[C@H]1OC [VIII, 3-O-Acetyl-20-deoxo-20-[(4,4-dioxothiomorpholinyl)imino]-4"-O-iso-valeryltylosin] | 67600 | 7500 |  |
| CC[C@H]1OC(=O)C[C@@H](OC(C)=O)[C@H](C)[C@@H](O[C@@H]2O[C@H](C)[C@@H](O[C@H]3C[C@@](C)(O)[C@@H](OC(=O)CC(C)C)[C@H](C)O3)[C@H](N(C)C)[C@H]2OC(C)=O)[C@@H](CC=NN2CCS(=O)(=O)CC2)C[C@@H](C)C(=O)/C=C/C(C)=C/[C@@H]1CO [X, 3,2'-Di-O-acetyl-23-O-demycinosyl-20deoxo-20-[(4,4-dioxothiomorpholinyl)imino]-4"-O-iso-valeryltylosin] | 80500 | 4800 |  |
| CC[C@H]1OC(=O)C[C@@H](OC(C)=O)[C@H](C)[C@@H](O[C@@H]2O[C@H](C)[C@@H](O[C@H]3C[C@@](C)(O)[C@@H](OC(=O)CC(C)C)[C@H](C)O3)[C@H](N(C)C)[C@H]2O)[C@@H](CC=NN2CCS(=O)(=O)CC2)C[C@@H](C)C(=O)/C=C/C(C)=C/[C@@H]1COC(C)=O [XI, 3,23-Di-O-acetyl-23-O-demycinosyl-20-deoxo-20-[(4,4-dioxothiomorpholinyl)imino]-4"-O-iso-valeryltylosin] | 61800 | 4600 |  |
| CC[C@H]1OC(=O)C[C@@H](OC(C)=O)[C@H](C)[C@@H](O[C@@H]2O[C@H](C)[C@@H](O[C@H]3C[C@@](C)(O)[C@@H](OC(=O)CC(C)C)[C@H](C)O3)[C@H](N(C)C)[C@H]2OC(C)=O)[C@@H](CC=NN2CCS(=O)(=O)CC2)C[C@@H](C)C(=O)/C=C/C(C)=C/[C@@H]1COC(C)=O [XII, 3,23,2'-Tri-O-acetyl-23-O-demycinosyl-20-deoxo-20-[(4,4-dioxothiomorpholinyl)imino]-4"-O-iso-valeryltylosin] | 154000 |  | AUC at 6 h ([1]; serum, 20 mg/kg, oral single dose 20 mg./kg., 3.5 mg./ml. in vehicle): 3800 ng·h/mL; serum levels compared with erythromycin, rosaramicin, tylosin, 3-O-acetyl-4"-O-iso-valeryltylosin, 3-O-acetyl-23-O-demycinosyl-4"-O-iso-valeryltylosin, intravenously to mice [2]: serum levels that are superior |
| CC[C@H]1OC(=O)C[C@@H](OC(C)=O)[C@H](C)[C@@H](O[C@@H]2O[C@H](C)[C@@H](O[C@H]3C[C@@](C)(O)[C@@H](OC(=O)CC(C)C)[C@H](C)O3)[C@H](N(C)C)[C@H]2O)[C@@H](CC=NN2CCS(=O)(=O)CC2)C[C@@H](C)C(=O)/C=C/C(C)=C/[C@@H]1COC(=O)Cc1ccccc1 [XIII, 3-O-Acetyl-23-O-demycinosyl-20-deoxo-20-[(4,4-dioxothiomorpholinyl)imino]-23-O-phenylacetyl-4"-O-iso-valeryltylosin] | 43400 |  |  |
